In US20250018048A1, “FLUCONAZOLE-COX INHIBITOR HYBRIDS: A DUAL-ACTING CLASS OF ANTIFUNGAL AZOLES” (Ramot at Tel-Aviv University Ltd., priority 2022, published 2025):
Values after ≈ are worked out from the molar mass of the structure shown.

Experiments:
Type in all cases: cell-based
[1] = tested on: C. albicans SN152; assay: MIC80 broth double-dilution assay; details: YPAD medium, 30° C., 24 h; parent strain of the erg11ΔΔ/erg3ΔΔ mutant
Procedure: (§1) The antifungal activities of the 24 azole-COX inhibitor hybrids were evaluated against a panel of 16 representative strains of different species of the genus Candida. Candida species cause both superficial and systemic infections. The panel included strains of C. albicans, C. glabrata, C. parapsilosis, C. tropicalis, C. guilliermondii, C. dubliniensis, and C. auris (Table S2). To evaluate antifungal activity, the minimal inhibitory concentration 80% (MIC80) values were determined, which were defined as the lowest drug concentrations with turbidity (measured at OD600) less than or equal to that of specific 1:5 dilutions of the growth control. As controls, FLC and VOR, were tested.
(§2) MIC80 values were determined using the broth microdilution method over a concentration range of 0.003-64 μg/mL. Orange circles represent C. albicans strains, yellow circles represent C. glabrata strains, and green circles represent C. parapsilosis, C. tropicalis, C. dubliniensis and C. auris. Cells were grown in YPAD medium at 30° C. (For C. auris strains 37° C.) 24 h. Each concentration was tested in triplicate, and results were confirmed in at least two independent experiments.
(§3) The clinically used FLC and VOR act primarily by preventing ergosterol biosynthesis via inhibition of CYP51. Analysis was done to determine whether fungal growth inhibition by the hybrids required the presence of the ERG11 gene that encodes for CYP51. The antifungal activities of hybrids 1 and 5 and of FLC and VOR were determined against an erg11ΔΔ/erg3ΔΔ mutant C. albicans strain and against C. albicans SN152 from which this double knockout strain was derived (Table S2). […] Yeast growth was followed at OD600 over 48 h in 96-well plates containing serial double dilutions of the tested hybrids.
(§4) C. albicans, C. glabrata, C. parapsilosis, C. guilliermondii, C. tropicalis, and C. dubliniensis MICs were determined using CLSI M27-A3 guidelines with minor modifications. Starter cultures were streaked from glycerol stock onto YPAD agar plates and grown for 24 h at 30° C. Colonies were suspended in 1 mL PBS and diluted to 1×10^−3 OD600 and then diluted 1:100 into fresh medium. Hybrids dissolved in DMSO were added to YPAD broth (32 μL stock solution in 1218 μL of YPAD broth), and serial double dilutions of hybrids in YPAD were prepared in flat-bottomed 96-well microplates (Corning) to enable testing of concentrations ranging from 64 μg/mL to 0.003 μg/mL. Control wells with yeast cells but no drug and blank wells containing only YPAD were prepared. An equal volume (100 μL) of yeast suspensions in YPAD broth was added to each well with the exceptions of the blank wells. MIC values (Tables S4-S6) were determined after 24 h at 30° C. by measuring the OD600 using a plate reader (Infinite M200 PRO, Tecan). MIC values were defined as the point at which the OD600 was reduced by >80% compared to the no-drug wells. Each concentration was tested in triplicate, and results were confirmed by two independent sets of experiments. FLC and VOR were used as control drugs.

[2] = tested on: C. guilliermondii T-47; assay: MIC80 broth double-dilution assay; details: YPAD medium, 30° C., 24 h
Procedure: as §1, §4

[3] = tested on: C. albicans 742 (erg11ΔΔ/erg3ΔΔ mutant C. albicans strain); assay: MIC80 broth double-dilution assay, strain lacking CYP51; details: YPAD medium, 30° C., 24 h; erg11ΔΔ/erg3ΔΔ mutant lacking CYP51
Procedure: as §1, §3, §4

[4] = tested on: C. parapsilosis ATCC 22019; assay: MIC80 broth double-dilution assay; details: YPAD medium, 30° C., 24 h
Procedure: as §1, §2, §4

[5] = tested on: C. tropicalis 660; assay: MIC80 broth double-dilution assay; details: YPAD medium, 30° C., 24 h
Procedure: as §1, §2, §4

[6] = tested on: C. albicans P-87; assay: MIC80 broth double-dilution assay; details: YPAD medium, 30° C., 24 h
Procedure: as §1, §2, §4

[7] = tested on: C. albicans ATCC 24433; assay: MIC80 broth double-dilution assay; details: YPAD medium, 30° C., 24 h
Procedure: as §1, §2, §4

[8] = tested on: C. albicans SC5314; assay: MIC80 broth double-dilution assay; details: YPAD medium, 30° C., 24 h
Procedure: as §1, §2, §4

[9] = tested on: C. albicans ATCC 90028; assay: MIC80 broth double-dilution assay; details: YPAD medium, 30° C., 24 h
Procedure: as §1, §2, §4

[10] = tested on: C. dubliniensis T-99; assay: MIC80 broth double-dilution assay; details: YPAD medium, 30° C., 24 h
Procedure: as §1, §2, §4

SMILES	MIC80 against C. albicans SN152 [1]	MIC80 against C. guilliermondii T-47 [2]	MIC80 against C. albicans 742 [3]	MIC80 against C. parapsilosis 22019 [4]	MIC80 against C. tropicalis 660 [5]	MIC80 against C. albicans P-87 [6]	MIC80 against C. albicans 24433 [7]	MIC80 against C. albicans SC5314 [8]	MIC80 against C. albicans 90028 [9]	MIC80 against C. dubliniensis T-99 [10]
CC(C)Cc1ccc([C@H](C)C(=O)NC[C@@](O)(Cn2cncn2)c2ccc(F)cc2F)cc1 [Hybrid 4]	1 mg/L (≈ 2.26 µM)	16 mg/L (≈ 36.2 µM)	>64 mg/L	8 mg/L (≈ 18.1 µM)	>64 mg/L	0.5 mg/L (≈ 1.13 µM)	2 mg/L (≈ 4.52 µM)	1 mg/L (≈ 2.26 µM)	1 mg/L (≈ 2.26 µM)	0.03 mg/L (≈ 0.0678 µM)
C[C@H](C(=O)NC[C@](O)(Cn1cncn1)c1ccc(F)cc1F)c1cccc(C(=O)c2ccccc2)c1 [Hybrid 13]	2 mg/L (≈ 4.08 µM)	32 mg/L (≈ 65.2 µM)	>64 mg/L	8 mg/L (≈ 16.3 µM)	16 mg/L (≈ 32.6 µM)	4 mg/L (≈ 8.15 µM)	4 mg/L (≈ 8.15 µM)	2 mg/L (≈ 4.08 µM)	2 mg/L (≈ 4.08 µM)	64 mg/L (≈ 130 µM)
O=C(NC[C@@](O)(Cn1cncn1)c1ccc(F)cc1F)c1cc(-c2ccc(F)cc2F)ccc1O [Hybrid 20]	8 mg/L (≈ 16.4 µM)	>64 mg/L	32 mg/L (≈ 65.8 µM)	8 mg/L (≈ 16.4 µM)	>64 mg/L	8 mg/L (≈ 16.4 µM)	16 mg/L (≈ 32.9 µM)	8 mg/L (≈ 16.4 µM)	16 mg/L (≈ 32.9 µM)	0.5 mg/L (≈ 1.03 µM)
C[C@@H](C(=O)NC[C@@](O)(Cn1cncn1)c1ccc(F)cc1F)c1ccc(-c2ccccc2)c(F)c1 [Hybrid 7]	8 mg/L (≈ 16.6 µM)	32 mg/L (≈ 66.6 µM)	64 mg/L (≈ 133 µM)	8 mg/L (≈ 16.6 µM)	64 mg/L (≈ 133 µM)	4 mg/L (≈ 8.32 µM)	16 mg/L (≈ 33.3 µM)	4 mg/L (≈ 8.32 µM)	8 mg/L (≈ 16.6 µM)	0.5 mg/L (≈ 1.04 µM)
COc1ccc2cc([C@H](C)C(=O)NC[C@](O)(Cn3cncn3)c3ccc(F)cc3F)ccc2c1 [Hybrid 9]	0.012 mg/L (≈ 0.0257 µM)	2 mg/L (≈ 4.29 µM)	64 mg/L (≈ 137 µM)	1 mg/L (≈ 2.14 µM)	2 mg/L (≈ 4.29 µM)	0.25 mg/L (≈ 0.536 µM)	0.5 mg/L (≈ 1.07 µM)	0.25 mg/L (≈ 0.536 µM)	0.25 mg/L (≈ 0.536 µM)	4 mg/L (≈ 8.57 µM)
O=C(NC[C@@](O)(Cn1cncn1)c1ccc(F)cc1F)c1cccnc1Nc1cccc(C(F)(F)F)c1 [Hybrid 18]	8 mg/L (≈ 15.4 µM)	>64 mg/L	64 mg/L (≈ 123 µM)	8 mg/L (≈ 15.4 µM)	>64 mg/L	16 mg/L (≈ 30.9 µM)	8 mg/L (≈ 15.4 µM)	16 mg/L (≈ 30.9 µM)	16 mg/L (≈ 30.9 µM)	16 mg/L (≈ 30.9 µM)
COc1ccc2cc([C@@H](C)C(=O)NC[C@@](O)(Cn3cncn3)c3ccc(F)cc3F)ccc2c1 [Hybrid 11]	0.5 mg/L (≈ 1.07 µM)	8 mg/L (≈ 17.1 µM)	>64 mg/L	4 mg/L (≈ 8.57 µM)	8 mg/L (≈ 17.1 µM)	1 mg/L (≈ 2.14 µM)	1 mg/L (≈ 2.14 µM)	0.5 mg/L (≈ 1.07 µM)	1 mg/L (≈ 2.14 µM)	8 mg/L (≈ 17.1 µM)
C[C@H](C(=O)NC[C@@](O)(Cn1cncn1)c1ccc(F)cc1F)c1cccc(C(=O)c2ccccc2)c1 [Hybrid 16]	>64 mg/L	>64 mg/L	>64 mg/L	>64 mg/L	>64 mg/L	>64 mg/L	>64 mg/L	>64 mg/L	>64 mg/L	16 mg/L (≈ 32.6 µM)
O=C(Cc1ccccc1Nc1c(Cl)cccc1Cl)NC[C@@](O)(Cn1cncn1)c1ccc(F)cc1F [Hybrid 24]	>64 mg/L	>64 mg/L	>64 mg/L	>64 mg/L	>64 mg/L	>64 mg/L	>64 mg/L	>64 mg/L	>64 mg/L	2 mg/L (≈ 3.76 µM)
C[C@@H](C(=O)NC[C@@](O)(Cn1cncn1)c1ccc(F)cc1F)c1cccc(C(=O)c2ccccc2)c1 [Hybrid 15]	>64 mg/L	>64 mg/L	>64 mg/L	>64 mg/L	>64 mg/L	>64 mg/L	>64 mg/L	>64 mg/L	>64 mg/L	16 mg/L (≈ 32.6 µM)
COc1ccc2cc([C@H](C)C(=O)NC[C@@](O)(Cn3cncn3)c3ccc(F)cc3F)ccc2c1 [Hybrid 12]	2 mg/L (≈ 4.29 µM)	32 mg/L (≈ 68.6 µM)	>64 mg/L	4 mg/L (≈ 8.57 µM)	>64 mg/L	4 mg/L (≈ 8.57 µM)	4 mg/L (≈ 8.57 µM)	2 mg/L (≈ 4.29 µM)	4 mg/L (≈ 8.57 µM)	32 mg/L (≈ 68.6 µM)
C[C@H](C(=O)NC[C@@](O)(Cn1cncn1)c1ccc(F)cc1F)c1ccc(-c2ccccc2)c(F)c1 [Hybrid 8]	64 mg/L (≈ 133 µM)	64 mg/L (≈ 133 µM)	>64 mg/L	64 mg/L (≈ 133 µM)	>64 mg/L	64 mg/L (≈ 133 µM)	>64 mg/L	32 mg/L (≈ 66.6 µM)	64 mg/L (≈ 133 µM)	2 mg/L (≈ 4.16 µM)
C[C@@H](C(=O)NC[C@](O)(Cn1cncn1)c1ccc(F)cc1F)c1cccc(C(=O)c2ccccc2)c1 [Hybrid 14]	0.5 mg/L (≈ 1.02 µM)	16 mg/L (≈ 32.6 µM)	>64 mg/L	8 mg/L (≈ 16.3 µM)	16 mg/L (≈ 32.6 µM)	1 mg/L (≈ 2.04 µM)	1 mg/L (≈ 2.04 µM)	1 mg/L (≈ 2.04 µM)	1 mg/L (≈ 2.04 µM)	4 mg/L (≈ 8.15 µM)
